Literature values, collected in patent US20050100594A1, “Pharmaceutical formulation containing muscle relaxant and COX-II inhibitor” (priority 2003, published 2005).
Where a name gives a salt, the structure may show the parent alone.

Tested on: skeletal muscle fibers, neuromuscular junction, monosynaptic spinal reflexes
Details: animal models

SMILES: Clc1ccc2nsnc2c1NC1=NCCN1 [Tizanidine, 5-chloro-4-(2-imidazolin-2-ylamino)-2,1,3-benzothiodiazole hydrochloride]
- effect on monosynaptic spinal reflexes: no major effect
- effect on skeletal muscle fibers or the neuromuscular junction: no direct effect
